The numbers were not newly measured in EP1249231B1, “Pharmaceutical formulations comprising anti-inflammatory compounds and use thereof” (VESIFACT AG, priority 2001, dated 2002), which cites them from elsewhere.

For this series the following is noted: free acid; background statement.

Turning to `CC(C)Cc1ccc(C(C)C(=O)O)cc1` (stereo not shown) [Ibuprofen], the “Löslichkeit in Wasser und im sauren Milieu des Magensaftes” value is reported as “schlecht löslich”.
